Columns and labels:
mice = test: TNF-α induced lethal toxicity in actinomycin D treated mice; assay type: in vivo; conditions: actinimycin D:TNF 20 to 2.5 and 15 to 1.0, SSI 3, 400 mg/mouse i.p. 2 hr prior to TNF, 5 mice
Experimental: The effect of SSI 3 on lethal toxicity in mice induced by TNF-α was investigated. Mice are relatively resistant to TNF-α, when applied as a single agent. Pretreatment of mice with actinomycin D renders them extremely sensitive to TNF. (Wallach et al., 140 J. Immun. 2994, 1988). SSI 3 delayed TNF-α induced lethal toxicity in actinomycin D treated mice by approximately 15 hours at two ratios of actinimycin D:TNF (20 to 2.5 and 15 to 1.0). Mice were injected, i.p., with TNF at 0 time. SSI 3, […]/mouse was administered (i.p.) 2 hr, and actinomycin D (ACT.D) was given (i.p.) 30 min prior to TNF injection. Each experimental group contained 5 mice. Injection of actinomycin D alone causes death in 2 out of 5 animals after 120 hours and 3 out of 5 after 144 hours.

p42^MAPK = test: LPS-induced tyrosine phosphorylation in macrophages; assay type: cell-based; conditions: murine peritoneal macrophages pre-treated with protective concentrations
Text: LPS-induced tyrosine phosphorylation of a 42 kD protein in murine peritoneal macrophages was inhibited by pre-treating the cells as before with protective concentrations of SSI 3. This protein band was identified as p42^MAPK. […] (Stefanova et al., supra.)

PDGFR = conditions: even at concentrations above 100 uM; cited from earlier work
TNF-α = test: LPS-induced production of TNF-α by activated murine peritoneal macrophages in vitro
Experimental: The amount of TNF-α was quantitated by assessing the extent of killing of the TNF-α sensitive cell line (A9) essentially as described by Ruff and Gilford, G. E. J. Immunol. […] Briefly, mouse A9 fibroblasts were plated in 96-well flat-bottom micro-titer plates at 30,000 cells /0.1 ml to establish a dense monolayer. After incubation for 24 hr at 37 C in a humidified 5% CO2 atmosphere, cycloheximide was added to a final concentration of 50 ug/ml and 100 ul of serially diluted test samples were added to the wells. After incubation for additional 18 hr the supernatants were carefully aspirated, the monolayer were washed twice with PBS and 200 ul of neutral red solution (0.02%) was added. After incubation for 2 hr, cells were washed and the dye that had been absorbed by the live cells was extracted using 200 ul of 50% ethanol. The concentration of the dye was determined by an ELISA autoreader using a 550 nm filter. Murine TNF-α ELISA kit from ENDOGEN Inc., was used for quancitation of murine TNF-α.
Mice were injected i.p. with 1 ml sodium periodate (5mM). Three to 4 days later, macrophages were washed from the peritoneal cavity with PBS. After centrifugation at 170g for 10 min at 40° C, the cell pellet was resuspended in RPMI 1640 containing 10% heat-inactivated new born calf serum. Adherent macrophage monolayers were obtained by plating the cells in 96-well plastic trays at 4x10^5 cells/well for 2 hr at 37°C in 5% CO2/air. Nonadherent cells were removed by suction and complete medium was added.

## N#CC(C#N)=Cc1ccc([N+](=O)[O-])c(O)c1 [SSI 3]
mice
  delay of TNF-α induced lethal toxicity: approximately 15 hours
p42^MAPK
  LPS-induced tyrosine phosphorylation of a 42 kD protein: inhibited
PDGFR
  effect on PDGFR: no effect
TNF-α; LPS +
  TNF-α: <5 pg/mL
TNF-α; LPS -
  TNF-α: <5 pg/mL
TNF-α; among the tyrphostins tested
  ability to inhibit LPS-induced production of TNF-α by activated murine peritoneal macrophages in vitro: most potent

Source: EP0731697B1, “SSI TYRPHOSTINS AND PHARMACEUTICAL COMPOSITIONS” (priority 1993, dated 1995)
